The numbers were not newly measured in patent publication US7910613B2, “2-acylaminothiazole derivatives” (H. Lundbeck A/S, priority 2004, dated 2011), which cites them from elsewhere.

Like-named read-outs stand apart in the source and are kept apart here.

In data set [1] the test system is mice. Conditions: for total immobility time: mouse tail suspension test.
The subject of data set [2] is mice. Conditions: mouse forced swimming test.
Data set [3] has as its system unilateral 6-OHDA (6-hydroxydopamine) lesioned mice and rats. To be noted: elicited by a subtreshold dose of levodopa.
Data set [4] relates to MPTP treated mice and 6-OHDA-lesioned rats.
The mark [5] stands for this setting: mice previously screened for having high immobility time.

Regarding `Nc1nc(NCCc2ccc(O)cc2)nc2nc(-c3ccco3)nn12` [ZM241385, 4-(2-[7-amino-2-(2-furyl)[1,2,4]triazolo[2,3-a][1,3,5]triazin-5-ylamino]-ethyl)phenol], the immobility result in the data set with mice [1] (setting [5]) is listed as “reduce immobility”.
On to `Nc1ncnc2c1ncn2[C@@H]1O[C@H](CO)[C@@H](O)[C@H]1O` [adenosine], for which, in the data set with mice [2], the immobility time result is on record as “increased immobility time”.
On to `Nc1nc2c(cnn2CCc2ccccc2)c2nc(-c3ccco3)nn12` [SCH58261, 2-(2-furanyl)-7-(2-phenylethyl)-7H-pyrazolo[4,3-e][1,2,4]triazolo[1,5-c]pyrimidin-5-amine], for which the contralateral rotations result in data set [3] is reported as “enhance contralateral rotations”. Also, the immobility result with mice [1] (setting [5]) is “reduce immobility”; in the data set on mice [1] (mice selectively bred for their helplessness), “reduced immobility”. Further, the total immobility time entry in the data set with mice [1] is recorded as “reduced the total immobility time”.
For `CCn1c(=O)c2c(nc(/C=C/c3ccc(OC)c(OC)c3)n2C)n(CC)c1=O` [KW-6002, 8-[(1E)-2-(3,4-dimethoxyphenyl)ethenyl]-1,3-diethyl-3,7-dihydro-7-methyl-1H-purine-2,6-dione], the contralateral rotations result in data set [3] was “enhance contralateral rotations”. Moreover, in data set [4], the “functional loss of dopaminergic nerve terminals in the striatum” value is “prevented functional loss of dopaminergic nerve terminals in the striatum” and the “gliosis normally induced around degenerating neurons” value is “prevented gliosis”. The “motor impairment induced by MPTP” value in the data set on non-human primates is “significantly improves motor impairment”. In the data set with non-human primates (MPTP), the dyskinesias entry is recorded as “without causing dyskinesias”. Also, the total immobility time entry in the data set with mice [1] is on record as “reduced the total immobility time”.
On to `Nc1nc(Cl)nc2c1ncn2[C@@H]1O[C@H](CO)[C@@H](O)[C@H]1O` [2-chloroadenosine], for which the immobility time entry in the data set with mice [2] is on record as “increased immobility time”.
